The results in this text go back to US5352815A, “Agent for suppression and interception of mailard reaction” (Asai Germanium Research Institute Co., Ltd., priority 1992, dated 1994).

A value given as a limit tells only on which side of the number the result lay.

Series [1] in a line: Example 2: AGE formation from F-lysine (model glycosylated protein; absorbance at 420 nm) and F-lysine decomposition (HPLC). The series is classed as biochemical. On the procedure: The organogermanium compound (1-1) was added to a phosphate buffer solution containing 10 mM of Nα-t-butoxycarbonyl-Nε-fructose-L-lysine(hereinafter abbreviated to F-lysine) as a model glycosylated protein, so that the final concentration became 0, 1, 5, 10 or 50 mM. Then, incubation was conducted at 40° C. for 15 days, after which the formation of AGE was measured by browning degree (absorbance at 420 nm) and the amount of F-lysine decomposed was measured by HPLC to examine the effect of the organogermanium compound (1-1) added.

Series [2] relates to tail tendon collagen. The experiment in a line: Example 5: fluorescence of tail tendon collagen in Streptozocin-diabetic rats. The series is classed as in vivo, Sprague-Dawley female rats. To be noted: 100 mg per kg, oral in drinking water; 14 weeks. On the procedure:
(§1) Streptozocin was intravenously injected into Sprague-Dawley female rats (total 21 rats each weighing 240-270 g) in an amount of 65 mg per kg of body weight to cause diabetes. Then, the rats were divided into two groups, i.e. a control group and an administered group. An organogermanium compound (1-1) was put into drinking water and orally administered to the administered group at night in an amount of 100 mg per kg of body weight.
(§2) 14 weeks after the administration of the organogermanium compound (1-1), all the rats were killed to collect the skin of abdomen and the tendon of tail. Collagen was extracted from each skin and each tendon and treated with collagenase for solubilization. Each of the solubilized collagens was measured for fluorescence at an excitation wavelength of 370 nm and an absorption wave length of 440 nm. At the same time, hydroxyproline was measured by HPLC; a collagen amount was calculated; and the adjustment of fluorescent intensity was made using the value.

Series [3] deals with rats. The experiment in a line: Acute oral toxicity in rats (LD50). The series is classed as in vivo. Conditions: oral administration. An excerpt:
(§3) The organogermanium compound (1) used in the present agent has very low toxicity. In the case of oral administration of the compound (1-1), the LD50 is 6 g or more for mice and 10 g or more for rats.

Series [4] deals with Fructosamine in serum. The experiment in a line: Example 6: serum Fructosamine in diabetes patients. It counts as in vivo, human (diabetes patients). Conditions: 750 mg/day for 2 months; 20 diabetes patients (FIG. 11). On the procedure: An organogermanium compound (1-1) was administered to 20 diabetes patients (they were diagnosed as diabetes by a 75-g grape sugar loading test) at a dose of 750 mg/day for 2 months. Fructosamine content in serum of each patient was measured before and after the administration.
Fructosamine content in serum was measured by an ordinary method, i.e. by adding a test sample or a reference (a standard Amadori rearrangement product) to a NTB solution, subjecting the mixture to incubation at 37° C., and measuring the developed color.

The test system of series [5] is mice. The experiment in a line: Acute oral toxicity in mice (LD50). It counts as in vivo. Conditions: oral administration.
Excerpt: as §3

In series [6] the test system is abdomen skin collagen. Nature of the series: Example 5: fluorescence of abdomen skin collagen in Streptozocin-diabetic rats. It counts as in vivo, Sprague-Dawley female rats. Conditions: 100 mg per kg, oral in drinking water; 14 weeks. The protocol: as §1, §2
In series [7] the test system is proteins in plasma. The experiment in a line: Example 4: glycation of plasma proteins in Streptozocin-diabetic rats. To be noted: 100 mg per kg, oral in drinking water. It counts as in vivo, Sprague-Dawley female rats. The protocol: as §1
4, 8 and 14 weeks after the administration of the organogermanium compound (1-1), blood sampling was made from all the rats of the two groups in hungry state. Each blood taken was measured for blood sugar, glucohemoglobin (hereinafter abbreviated to GHb), glycated albumin (hereinafter abbreviated to GA) and Fructosamine (hereinafter abbreviated to Fru). GHb was measured by affinity chromatography using a mini column, and GA was measured by HPLC using two different columns. The body weight, amount of water taken and amount of food taken, of each rat were also recorded simultaneously.

A short description of series [8]: Example 3: decomposition of Amadori rearrangement product formed from ribose and alginine (HPLC). Conditions: 40 mM solution mixed 1:1; 37° C., 24 hours, pH 7.4 (FIG. 6). It counts as biochemical. The protocol:
20 mg of ribose, 20 mg of alginine and 10 ml of methanol were reacted under refluxing, in a hot bath of 60°-70° C. 10-15 minutes later, 0.1-0.3 ml of acetic acid was added and the reaction was continued for a further 5-10 minutes. Then, the reaction mixture was concentrated under reduced pressure. During the concentration, a small amount of water was added to remove acetic acid. The concentrate was dissolved in 1 ml of water and the solution was subjected to HPLC to collect an Amadori rearrangement product. The product was freeze-dried.
The freeze-dried product of the Amadori rearrangement product was suspended in 4 ml of a sodium phosphate buffer solution (pH 7.4, 0.1M). The suspension was mixed with a sodium phosphate buffer solution containing or not containing 40 mM of the organogermanium compound (1-1), at a 1:1 ratio. The mixture was incubated at 37° C. for 24 hours. Sampling of 0.1 ml was conducted with the lapse of time for immediate analysis by HPLC. When immediate analysis was impossible, the sample was freeze-storedat -20° C.

A short description of series [9]: Example 1: Mailard reaction of Nα-t-Boc-lysine (model protein) with glucose; AGE formation (absorbance at 420 nm) and Nα-t-Boc-lysine consumption (HPLC). Conditions: 40° C. It counts as biochemical. The protocol:
The organogermanium compound (1-1) was added to a phosphate buffer solution (50 mM, pH 7.4) containing 50 mM of Nα-t-butoxycarbonyl-L-lysine (hereinafter abbreviated to Nα-t-Boc-lysine) as a model protein and 1M of glucose, so that the final concentration became 0, 1, 5 or 10 mM. Then, incubation was conducted at 40° C. for 15 days, after which the formation of AGE was measured by browning degree (absorbance at 420 nm) and the amount of Nα-t-Boc-lysine consumed was measured by high-performance liquid chromatography (hereinafter abbreviated to HPLC) to examine the effect of the organogermanium compound (1-1) added.

Series [10] is described as follows: Example 5: general observations in Streptozocin-diabetic rats (blood sugar, body weight, water, food). The series is classed as in vivo, Sprague-Dawley female rats. To be noted: 100 mg per kg, oral in drinking water; 4, 8 and 14 weeks; vs control group. On the procedure:
as §1
Incidentally, during the test period, i.e. 4, 8 and 14 weeks after the administration of the organogermanium compound (1-1), there was no difference in blood sugar in hungry state, body weight, amount of water taken and amount of food taken, between the two groups.

In the case of `N=C(N)NN` [aminoguanidine, reference compound], the “effect in the test of Example 2 (AGE formation and F-lysine consumption)” value in [1] (compared with compound (1-1), used in its place) was “substantially no effect”.
On to `O=C(O)C[CH2][Ge](=[O])[O][Ge](=[O])[CH2]CC(=O)O` [compound (1-1)], for which the “fluorescence of tendon collagen vs control group” value in [2] is “significantly lower”. Besides, the LD50 in [3] is listed as not below 10 g; in series [5] it was not below 6 g. In addition, the “Fructosamine content in serum after vs before administration” value in [4] is reported as “lower after the administration”. Further, the “consumption of F-lysine (suppressed to)” value in [1] (50 mM, 40° C., 15 days, HPLC (FIG. 4)) was “about 20%”. Moreover, the “consumption of F-lysine” value in series [1] (5-50 mM, 40° C., 15 days, HPLC (FIG. 4)) is “suppressed the consumption of F-lysine”. The “suppression of the formation of AGE” value in series [1] (5-50 mM, 40° C., 15 days, absorbance at 420 nm (FIG. 3)) is “suppressed the formation of AGE substantially completely”; in [9] (5-10 mM, 15 days, pH 7.4, absorbance at 420 nm (FIG. 1)), “suppressed the formation substantially completely”. In series [6], the “fluorescence of skin collagen vs control group” value is recorded as “significantly lower”. Further, the “Fru (Fructosamine) vs control group” value in series [7] (8 weeks (FIG. 8)) is “significantly lower in the administered group”. In series [7] (14 weeks), the “GA (glycated albumin) vs control group” value is reported as “significantly lower in the administered group”. For the same molecule, the “Fru (Fructosamine) difference vs control group” value in series [7] (14 weeks, compared with 8 weeks) is given as “the difference was more significant in 14 weeks”. The “body weight, amount of water taken and amount of food taken” value in [7] (test period, vs control group) is listed as “no difference”; in [10], “no difference”. The “GHb (glucohemoglobin)” value in [7] (vs control group) was “lower in the administered group”. For the same molecule, the “blood sugar in hungry state” value in [7] (vs control group) and in series [10] was “no difference” in each case. Further, the “alginine increase and unidentified substance peak increase” value in series [8] was “substantially seen neither alginine increase nor unidentified substance peak increase”. Moreover, the “decrease of the Amadori rearrangement product” value in [8] is recorded as “very mild”. The “suppression of the formation of AGE, concentration dependence” value in series [9] (0, 1, 5 or 10 mM, 15 days (FIG. 1)) is given as “suppressed the formation of AGE dependently upon the concentration”. The “consumption of Nα-t-Boc-lysine (suppressed to)” value in series [9] (10 mM, 15 days, HPLC (FIG. 2)) is on record as “about 10%”.
